In brackets after ≈: the same amount, converted by molar mass.
Key:
[1] = Inhibition of canonical Wnt pathway in human DBTRG-05-MG cells after 36 hrs by TCF-luciferase and TA-renilla dual-luciferase reporter assay; format: cell-based
[2] = Solubility of the compound at pH 3 to 7.4 after 24 hrs; format: physicochemical; settings: buffer; for solubility: pH 3, 24 h; for solubility at 24 h: pH 3
CYP3A4 = CYP3A4 (Homo sapiens, UniProt P08684); assay: Metabolic stability of in DMSO solution assessed as human CYP3A4-mediated drug degdaradtion by measuring compound remaining at 1 uM after 1 hr in presence of human CYP3A4 and NADPH; format: ADME; settings: human CYP3A4 enzyme, read-out: Stability
[3] = Permeability of the compound by PAMPA; format: physicochemical; settings: read-out: permeability
[4] = Homo sapiens, DBTRG-05MG, 36 h, read-out: IC50

Chain of CYP3A4 (P08684 whole entry): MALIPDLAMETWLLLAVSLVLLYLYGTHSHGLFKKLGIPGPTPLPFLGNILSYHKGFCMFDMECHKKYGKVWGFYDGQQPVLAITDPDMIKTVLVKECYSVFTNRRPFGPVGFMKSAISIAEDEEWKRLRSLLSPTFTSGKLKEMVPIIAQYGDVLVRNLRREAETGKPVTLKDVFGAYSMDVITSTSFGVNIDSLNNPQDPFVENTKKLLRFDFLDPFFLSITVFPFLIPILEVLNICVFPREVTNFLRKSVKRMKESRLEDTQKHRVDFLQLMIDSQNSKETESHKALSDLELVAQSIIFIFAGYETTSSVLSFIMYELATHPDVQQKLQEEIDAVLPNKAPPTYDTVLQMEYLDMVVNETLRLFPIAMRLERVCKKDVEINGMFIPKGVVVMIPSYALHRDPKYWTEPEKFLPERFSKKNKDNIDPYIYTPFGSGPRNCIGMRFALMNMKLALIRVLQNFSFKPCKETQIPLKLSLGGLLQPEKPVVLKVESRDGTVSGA

Compound | IC50 [1, 4] | solubility [2] | remaining at 1 h, 1 µM (CYP3A4) | IC50 [1] | solubility at 24 h [2] | Papp [3]
Cc1cc(-c2cnc(NC(C)C)nc2C2CCN(C(=O)c3ccc(C)s3)CC2)on1 | 8.05 µM | Insoluble | < 20% |  |  | 
CC(=O)N1CCC(c2nc(N3CCN(C)CC3)ncc2-c2cc(C)no2)CC1 |  |  | 100% | Not Active | 225 µM (≈ 86.5 µg/mL) | 2 ×10⁻⁶ cm/s
CC(=O)N1CCC(c2nc(N3CCOCC3)ncc2-c2cc(C)no2)CC1 | 10.6 µM |  | 75% |  | 211 µM (≈ 78.4 µg/mL) | > 10 ×10⁻⁶ cm/s
CC(=O)N1CCC(c2nc(NCc3cccnc3)ncc2-c2cc(C)no2)CC1 |  |  | < 20% |  | 238 µM (≈ 93.4 µg/mL) | 2 ×10⁻⁶ cm/s
CC(=O)N1CCC(c2nc(NCc3ccccn3)ncc2-c2cc(C)no2)CC1 |  |  | 27% | Not Active | 221 µM (≈ 86.7 µg/mL) | 2 ×10⁻⁶ cm/s
CC(=O)N1CCC(c2nc(NC(C)C)ncc2-c2cc(C)no2)CC1 |  |  | 75% | Not Active | 224 µM (≈ 76.9 µg/mL) | > 10 ×10⁻⁶ cm/s
CC(=O)N1CCC(c2nc(NCc3ccc(F)cc3)ncc2-c2cc(C)no2)CC1 |  | Insoluble | < 20% | Not Active |  | > 10 ×10⁻⁶ cm/s
COCCNc1ncc(-c2cc(C)no2)c(C2CCN(C(C)=O)CC2)n1 |  |  | 84% | Not Active | 233 µM (≈ 83.7 µg/mL) | 2 ×10⁻⁶ cm/s

Next, values leading:

IC50 [1, 4] | solubility [2] | remaining at 1 h, 1 µM (CYP3A4) | IC50 [1] | solubility at 24 h [2] | Papp [3] | Compound
8.5 µM | Insoluble | < 20% |  |  |  | Cc1cc(-c2cnc(N3CCOCC3)nc2-c2ccc(C)s2)on1
 | Insoluble | < 20% | Not Active |  |  | Cc1cc(-c2cnc(N3CCCC3)nc2-c2ccc(C)s2)on1
 |  | 51% | Not Active | 11 µM (≈ 3.91 µg/mL) | > 10 ×10⁻⁶ cm/s | Cc1cc(-c2cnc(N3CCN(C)CC3)nc2-c2ccc(C)s2)on1
14.1 µM | Insoluble | < 20% |  |  |  | Cc1cc(-c2cnc(N3CC(C)OC(C)C3)nc2-c2ccc(C)s2)on1 (stereo not drawn)
17.6 µM |  | < 20% |  | 1 µM (≈ 0.363 µg/mL) |  | Cc1cc(-c2cnc(NCc3cccnc3)nc2-c2ccc(C)s2)on1
13.9 µM |  | < 20% |  | 1 µM (≈ 0.363 µg/mL) |  | Cc1cc(-c2cnc(NCc3ccccn3)nc2-c2ccc(C)s2)on1
 | Insoluble | 20% | Not Active |  |  | Cc1cc(-c2cnc(NC(C)C)nc2-c2ccc(C)s2)on1
 | Insoluble | 29% | Not Active |  |  | Cc1cc(-c2cnc(NCc3ccc(F)cc3)nc2-c2ccc(C)s2)on1
 | Insoluble | 27% | Not Active |  | > 10 ×10⁻⁶ cm/s | COCCNc1ncc(-c2cc(C)no2)c(-c2ccc(C)s2)n1
 |  | 59% | Not Active | 207 µM (≈ 73.6 µg/mL) | > 10 ×10⁻⁶ cm/s | CC(=O)N1CCC(c2nc(N3CCCC3)ncc2-c2cc(C)no2)CC1
